Patent US9415009B2 (Pearl Therapeutics, Inc., priority 2009, dated 2016)

Test: Particle size distribution by laser diffraction (Sympatec, Fraunhofer mode)
Format: physicochemical
Conditions: for optical diameter that 50% by volume of the micronized particles are smaller than / optical diameter that 90% by volume of the micronized particles are smaller than: micronized active agent particles
[1] = Example 4, Table 2, micronized API
[2] = Example 10, Table 12, Triple TFM primary particle size
[3] = Example 9, Table 9, primary particle size
[4] = Example 10, Table 11, Triple GFM primary particle size

COc1ccc(C[C@@H](C)NC[C@H](O)c2ccc(O)c(NC=O)c2)cc1 (racemic) [Coarse FF API, (±)-2-hydroxy-5-[(1RS)-1-hydroxy-2-[[(1RS)-2-(4-methoxyphenyl)-1-methylethyl]-amino]ethyl]formanilide]
Span [1]: 2.0

COc1ccc(C[C@@H](C)NC[C@H](O)c2ccc(O)c(NC=O)c2)cc1 (racemic) [Fine FF API, (±)-2-hydroxy-5-[(1RS)-1-hydroxy-2-[[(1RS)-2-(4-methoxyphenyl)-1-methylethyl]-amino]ethyl]formanilide]
Span [1]: 1.5 | d90 (μm) [1]: 2.3 μm

CCC(=O)O[C@]1(C(=O)SCF)[C@H](C)C[C@H]2[C@@H]3C[C@H](F)C4=CC(=O)C=C[C@]4(C)[C@@]3(F)[C@@H](O)C[C@@]21C [FP, S-(fluoromethyl)6^α,9-difluoro-11^β-17-dihydroxy-16^α-methyl-3-oxoandrosta-1,4-diene-17^β-carbothioate, 17-propionate]
optical diameter that 50% by volume of the micronized particles are smaller than: 2.6 μm | optical diameter that 90% by volume of the micronized particles are smaller than: 6.6 μm

OCc1cc(C(O)CNCCCCCCOCCCCc2ccccc2)ccc1O (stereo not drawn) [SX, 4-hydroxy-α1-[[[6-(4-phenylbutoxy)hexyl]amino]methyl]-1,3-benzenedimethanol, 1-hydroxy-2-naphthalenecarboxylate]
optical diameter that 50% by volume of the micronized particles are smaller than: 2 μm | optical diameter that 90% by volume of the micronized particles are smaller than: 3.9 μm

C[N+]1(C)[C@@H]2C[C@@H](OC(=O)C(O)(c3cccs3)c3cccs3)C[C@H]1[C@@H]1O[C@@H]12 [Micronized Tiotropium Bromide Anhydrous, tiotropium bromide]
Span [2]: 2.7 | d10 (μm) [2]: 0.5 μm | d50 (μm) [2]: 1.3 μm | d90 (μm) [2]: 3.9 μm

COc1ccc(C[C@@H](C)NC[C@H](O)c2ccc(O)c(NC=O)c2)cc1 (racemic) [FF API, (±)-2-hydroxy-5-[(1RS)-1-hydroxy-2-[[(1RS)-2-(4-methoxyphenyl)-1-methylethyl]-amino]ethyl]formanilide]
Span [3]: 1.8 | Span [4]: 1.9 | Span [2]: 1.9 | Span (Example 11, Table 14): 1.8

C[C@@H]1C[C@H]2[C@@H]3CCC4=CC(=O)C=C[C@]4(C)[C@@]3(Cl)[C@@H](O)C[C@]2(C)[C@@]1(OC(=O)c1ccco1)C(=O)CCl [MF, 9α,21-dichloro-11β,17-dihydroxy-16α-methylpregna-1,4-diene-3,20-dione 17-(2-furoate)]
Span [3]: 2.2 | ×10 (μm) [3]: 0.4 μm | ×50 (μm) [3]: 1.1 μm | ×90 (μm) [3]: 2.8 μm | Span [4]: 1.9 | d10 (μm) [4]: 0.4 μm | d50 (μm) [4]: 1.0 μm | d90 (μm) [4]: 2.3 μm | Span [2]: 2.2 | d10 (μm) [2]: 0.4 μm | d50 (μm) [2]: 1.1 μm | d90 (μm) [2]: 2.8 μm | optical diameter that 50% by volume of the micronized particles are smaller than: 1.6 μm | optical diameter that 90% by volume of the micronized particles are smaller than: 3.5 μm
